Test results taken from patent US6180615A, “Propargyl phenyl ether A2A receptor agonists” (CV Therapeutics, Inc., priority 1999, dated 2001).

target: T1, A2A receptor (Sus scrofa, UniProt K9IW67); assay: affinity for the A2A receptor in a pig striatum membrane prep (displacement of tritiated antagonist ZM 241385); assay type: binding; conditions: pig striatal membranes, adenosine deaminase, 50 mM Tris pH 7.4, 2 nM tritiated ZM 241385, 23° C. for 2 h
T1 construct: from tissue; host or cells: pig striatum membranes
T1 sequence (K9IW67 1-409): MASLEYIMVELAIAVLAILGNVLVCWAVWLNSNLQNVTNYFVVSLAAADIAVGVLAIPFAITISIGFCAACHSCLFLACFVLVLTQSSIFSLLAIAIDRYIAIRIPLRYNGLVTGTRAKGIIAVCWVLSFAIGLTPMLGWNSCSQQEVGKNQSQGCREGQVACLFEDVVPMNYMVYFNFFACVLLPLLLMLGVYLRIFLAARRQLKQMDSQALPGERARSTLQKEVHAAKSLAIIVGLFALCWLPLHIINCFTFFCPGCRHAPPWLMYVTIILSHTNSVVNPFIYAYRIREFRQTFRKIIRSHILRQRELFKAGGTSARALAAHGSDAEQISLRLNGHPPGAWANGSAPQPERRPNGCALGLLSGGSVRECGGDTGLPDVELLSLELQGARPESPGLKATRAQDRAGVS
Protocol: Compositions of this invention were assayed to determine their affinity for the A2A receptor in a pig striatum membrane prep. 0.2 mg of pig striatal membranes were treated with adenosine deaminase and 50 mM Tris buffer (pH=7.4) followed by mixing. To the pig membranes was added 2 μL of serially diluted DMSO stock solution of the compounds of this invention at concentrations ranging from 100 μM to 10 nM or the control received 2 μL of DMSO alone, then the tritiated antagonist ZM 241385 in Tris buffer (50 mM, pH of 7.4) was added to achieve a final concentration of 2 nM . After incubation at 23° C. for 2 h, the solutions were filtered using a membrane harvester using multiple washing of the membranes (3×). The filter disks where counted in scintillation cocktail affording the amount of displacement of tritiated ZM by the competitive binding compositions of this invention. Greater than a 5 point curve was used to generate IC50's and the number of experiments (n) is indicated in the column marked in Table 1 below.

Compound	Ki [nM]
Nc1nc(C#CCOc2ccc(-c3ccccc3)cc2)nc2c1ncn2[C@@H]1O[C@H](CO)[C@@H](O)[C@H]1O [Compound 13, (4S,2R,3R,5R)-2-{6-amino-2-[3-(4-phenylphenoxy)prop-1-ynyl]purin-9-yl}-5-(hydroxymethyl)oxolane-3,4-diol]	1000 to 10000
Nc1nc(C#CCOc2ccccc2-c2ccccc2)nc2c1ncn2[C@@H]1O[C@H](CO)[C@@H](O)[C@H]1O [Compound 10, (4S,2R,3R,5R)-2-{6-amino-2-[3-(2-phenylphenoxy)prop-1-ynyl]purin-9-yl}-5-(hydroxymethyl)oxolane-3,4-diol]	100 to 1000
Nc1nc(C#CCOc2cccc3c2OCO3)nc2c1ncn2[C@@H]1O[C@H](CO)[C@@H](O)[C@H]1O [Compound 15, 2-[2-(3-(2H-benzo[2,3-d]1,3-dioxolen-4-yloxy)prop-1-ynyl)-6-aminopurin-9-yl](4S,2R,3R,5R)-5-(hydroxymethyl)oxolane-3,4-diol]	10 to 100
N#Cc1ccc(OCC#Cc2nc(N)c3ncn([C@@H]4O[C@H](CO)[C@@H](O)[C@H]4O)c3n2)cc1 [Compound 12, 4-(3-{9-[(4S,2R,3R,5R)-3,4-dihydroxy-5-(hydroxymethyl)oxolan-2-yl]-6-aminopurin-2-yl}prop-2-ynyloxy)benzenecarbonitrile]	100 to 1000

Further lines, results first:

Ki [nM]	Compound
1000 to 10000	CC(C)(C)c1cc(OCC#Cc2nc(N)c3ncn([C@@H]4O[C@H](CO)[C@@H](O)[C@H]4O)c3n2)cc(C(C)(C)C)c1 [Compound 16, (4S,2R,3R,5R)-2-(6-amino-2-{3-[3,5-bis(tert-butyl)phenoxy]prop-1-ynyl}purin-9-yl)-5-(hydroxymethyl)oxolane-3,4-diol]
100 to 1000	Nc1nc(C#CCOc2ccccc2Cc2ccccc2)nc2c1ncn2[C@@H]1O[C@H](CO)[C@@H](O)[C@H]1O [Compound 14]
10 to 100	Nc1nc(C#CCOc2ccccc2)nc2c1ncn2[C@@H]1O[C@H](CO)[C@@H](O)[C@H]1O [Compound 11, (4S,2R,3R,5R)-2-[6-amino-2-(3-phenoxyprop-1-ynyl)purin-9-yl]-5-(hydroxymethyl)oxolane-3,4-diol]
